Each block holds one compound with its values, some of them ahead of it.
Columns and labels:
[1] = target: T1, 5-hydroxytryptamine receptor 3A (Homo sapiens) (UniProt P46098); assay: 5HT3/H Eurofins SafetyScreen44 (BI); conditions: Compound concentration 10.0 uM
T1 sequence (whole entry): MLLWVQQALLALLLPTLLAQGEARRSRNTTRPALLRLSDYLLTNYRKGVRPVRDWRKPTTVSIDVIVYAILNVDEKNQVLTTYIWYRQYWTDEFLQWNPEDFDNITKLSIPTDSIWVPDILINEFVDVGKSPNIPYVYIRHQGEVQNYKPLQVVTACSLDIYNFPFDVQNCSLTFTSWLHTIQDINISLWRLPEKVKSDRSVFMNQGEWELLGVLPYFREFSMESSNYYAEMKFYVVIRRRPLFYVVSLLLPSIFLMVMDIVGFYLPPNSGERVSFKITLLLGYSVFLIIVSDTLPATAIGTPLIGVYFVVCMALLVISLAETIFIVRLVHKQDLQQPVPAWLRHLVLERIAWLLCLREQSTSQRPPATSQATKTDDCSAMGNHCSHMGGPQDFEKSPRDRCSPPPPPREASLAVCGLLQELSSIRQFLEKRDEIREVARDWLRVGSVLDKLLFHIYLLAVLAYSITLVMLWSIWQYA

[2] = target: Muscarinic acetylcholine receptor M3 (Homo sapiens, UniProt P20309); assay: M3/H Eurofins SafetyScreen44 (BI); conditions: Compound concentration 10.0 uM
[3] = target: D(4) dopamine receptor (Homo sapiens) (UniProt P21917); conditions: Compound concentration 10.0 uM
[4] = target: T2, Alpha-2A adrenergic receptor (Homo sapiens) (UniProt P08913); assay: ALPHA2A/HU Eurofins SafetyScreen44 (BI); conditions: Compound concentration 10.0 uM
T2 sequence (whole entry): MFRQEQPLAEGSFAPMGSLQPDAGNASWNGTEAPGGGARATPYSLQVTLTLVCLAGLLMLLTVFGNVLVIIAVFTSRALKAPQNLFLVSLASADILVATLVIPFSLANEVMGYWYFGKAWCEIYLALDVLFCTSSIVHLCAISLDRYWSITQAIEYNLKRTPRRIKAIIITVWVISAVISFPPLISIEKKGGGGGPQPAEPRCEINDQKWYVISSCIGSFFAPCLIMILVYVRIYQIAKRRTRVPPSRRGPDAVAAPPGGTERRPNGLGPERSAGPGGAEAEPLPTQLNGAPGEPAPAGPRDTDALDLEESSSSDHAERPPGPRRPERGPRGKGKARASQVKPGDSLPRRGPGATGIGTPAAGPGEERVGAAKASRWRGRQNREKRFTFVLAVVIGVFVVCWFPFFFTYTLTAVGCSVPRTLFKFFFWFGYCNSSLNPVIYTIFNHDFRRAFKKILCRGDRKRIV

[5] = target: Sodium-dependent noradrenaline transporter (Homo sapiens) (UniProt P23975); assay: NEUP/H Eurofins SafetyScreen44 (BI); conditions: Compound concentration 10.0 uM
[6] = target: Beta-2 adrenergic receptor (Homo sapiens) (UniProt P07550); conditions: Compound concentration 10.0 uM
[7] = target: cGMP-inhibited 3',5'-cyclic phosphodiesterase 3A (Homo sapiens) (UniProt Q14432); assay: PDE3A Eurofins SafetyScreen44 (BI); conditions: Compound concentration 10.0 uM
[8] = target: T2, Alpha-2A adrenergic receptor (Homo sapiens); assay: ALPHA2A/H Eurofins SafetyScreen44 (BI)
[9] = target: Kappa-type opioid receptor (Homo sapiens) (UniProt P41145); assay: KAPPA/HU Eurofins SafetyScreen44 (BI); conditions: Compound concentration 10.0 uM
[10] = target: D(2) dopamine receptor (Homo sapiens) (UniProt P14416); assay: D2S/HU Eurofins SafetyScreen44 (BI); conditions: Compound concentration 10.0 uM
[11] = target: P2X purinoceptor (Oryctolagus cuniculus) (UniProt G1U3D6); assay: P2X/RB Eurofins SafetyScreen44 (BI); conditions: Compound concentration 10.0 uM
[12] = target: Cysteinyl leukotriene receptor 1 (Homo sapiens) (UniProt Q9Y271); assay: CYSLT1_HS Eurofins SafetyScreen44 (BI); conditions: Compound concentration 10.0 uM
[13] = target: D(3) dopamine receptor (Homo sapiens) (UniProt P35462); assay: D3/HU Eurofins SafetyScreen44 (BI); conditions: Compound concentration 10.0 uM
[14] = target: Sodium-dependent dopamine transporter (Homo sapiens) (UniProt Q01959); assay: DATRANS/H Eurofins SafetyScreen44 (BI); conditions: Compound concentration 10.0 uM
[15] = target: D(1A) dopamine receptor (Homo sapiens) (UniProt P21728); assay: D1/HU Eurofins SafetyScreen44 (BI); conditions: Compound concentration 10.0 uM
[16] = target: 5-hydroxytryptamine receptor 2B (Homo sapiens) (UniProt P41595); conditions: Compound concentration 10.0 uM
[17] = target: T3, Muscarinic acetylcholine receptor M1 (Homo sapiens) (UniProt P11229); assay: M1/HU Eurofins SafetyScreen44 (BI); conditions: Compound concentration 10.0 uM
T3 sequence (whole entry): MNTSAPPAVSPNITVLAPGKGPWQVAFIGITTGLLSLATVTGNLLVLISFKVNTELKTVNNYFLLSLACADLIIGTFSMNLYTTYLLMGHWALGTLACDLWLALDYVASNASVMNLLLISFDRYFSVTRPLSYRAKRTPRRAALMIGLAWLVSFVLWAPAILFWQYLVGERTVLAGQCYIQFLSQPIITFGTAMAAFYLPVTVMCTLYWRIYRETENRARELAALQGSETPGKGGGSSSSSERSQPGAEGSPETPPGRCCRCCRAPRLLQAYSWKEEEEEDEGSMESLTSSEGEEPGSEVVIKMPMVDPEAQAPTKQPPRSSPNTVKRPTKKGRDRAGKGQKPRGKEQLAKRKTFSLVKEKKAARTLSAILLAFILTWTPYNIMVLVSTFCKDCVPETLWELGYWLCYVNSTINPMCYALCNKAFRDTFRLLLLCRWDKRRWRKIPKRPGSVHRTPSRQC

[18] = target: Platelet-activating factor receptor (Homo sapiens) (UniProt P25105); assay: PAF/H Eurofins SafetyScreen44 (BI); conditions: Compound concentration 10.0 uM
[19] = target: Sodium-dependent serotonin transporter (Homo sapiens) (UniProt P31645); assay: 5HTTRANS/HU Eurofins SafetyScreen44 (BI); conditions: Compound concentration 10.0 uM
[20] = target: Prostaglandin E2 receptor EP4 subtype (Homo sapiens) (UniProt P35408); assay: PEP4_HU Eurofins SafetyScreen44 (BI)
[21] = target: 3',5'-cyclic-AMP phosphodiesterase 4A (Rattus norvegicus) (UniProt P54748); assay: ROLIPRAM/R Eurofins SafetyScreen44 (BI); conditions: Compound concentration 10.0 uM
[22] = target: Sodium- and chloride-dependent GABA transporter 1 (Rattus norvegicus) (UniProt P23978); assay: GABATRANS/RA Eurofins SafetyScreen44 (BI); conditions: Compound concentration 10.0 uM

Chain of Prostaglandin E2 receptor EP4 subtype (Homo sapiens) (P35408 whole entry): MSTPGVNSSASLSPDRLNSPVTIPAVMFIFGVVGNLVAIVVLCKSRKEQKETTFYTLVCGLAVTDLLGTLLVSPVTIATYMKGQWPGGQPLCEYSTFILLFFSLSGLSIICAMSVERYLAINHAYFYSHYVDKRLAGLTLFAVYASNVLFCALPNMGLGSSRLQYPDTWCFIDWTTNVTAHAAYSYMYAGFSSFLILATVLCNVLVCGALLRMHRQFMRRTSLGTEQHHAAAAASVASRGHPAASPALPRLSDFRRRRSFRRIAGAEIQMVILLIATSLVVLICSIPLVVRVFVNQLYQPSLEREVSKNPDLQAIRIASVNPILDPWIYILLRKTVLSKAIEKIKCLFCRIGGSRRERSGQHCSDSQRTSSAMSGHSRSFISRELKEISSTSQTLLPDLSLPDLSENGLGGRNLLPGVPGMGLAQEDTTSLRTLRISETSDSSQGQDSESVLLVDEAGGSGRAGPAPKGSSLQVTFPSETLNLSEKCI
Chain of Beta-2 adrenergic receptor (Homo sapiens) (P07550 whole entry, looked up): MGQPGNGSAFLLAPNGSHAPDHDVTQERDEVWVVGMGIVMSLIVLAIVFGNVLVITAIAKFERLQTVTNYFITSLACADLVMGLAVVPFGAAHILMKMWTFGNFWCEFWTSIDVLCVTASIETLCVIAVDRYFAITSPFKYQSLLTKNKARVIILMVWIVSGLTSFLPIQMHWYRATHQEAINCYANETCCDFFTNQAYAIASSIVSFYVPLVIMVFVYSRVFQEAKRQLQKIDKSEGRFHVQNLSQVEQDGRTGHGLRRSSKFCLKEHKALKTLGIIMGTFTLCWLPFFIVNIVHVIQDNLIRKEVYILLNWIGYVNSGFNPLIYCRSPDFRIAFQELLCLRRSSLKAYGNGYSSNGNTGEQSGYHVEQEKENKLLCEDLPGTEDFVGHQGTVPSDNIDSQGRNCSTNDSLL
Chain of D(4) dopamine receptor (Homo sapiens) (P21917 whole entry): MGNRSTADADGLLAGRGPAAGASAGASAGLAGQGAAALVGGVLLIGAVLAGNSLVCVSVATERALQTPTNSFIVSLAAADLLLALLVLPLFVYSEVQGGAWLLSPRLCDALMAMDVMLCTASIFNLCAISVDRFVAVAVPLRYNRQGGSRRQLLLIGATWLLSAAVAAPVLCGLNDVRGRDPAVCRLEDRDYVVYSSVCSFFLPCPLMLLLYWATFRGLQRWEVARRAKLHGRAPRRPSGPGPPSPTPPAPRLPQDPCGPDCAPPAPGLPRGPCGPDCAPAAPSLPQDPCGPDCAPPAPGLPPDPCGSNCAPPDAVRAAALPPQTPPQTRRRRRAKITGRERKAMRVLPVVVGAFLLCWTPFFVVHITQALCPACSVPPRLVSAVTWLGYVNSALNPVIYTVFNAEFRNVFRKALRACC
Chain of 5-hydroxytryptamine receptor 2B (Homo sapiens) (P41595 whole entry): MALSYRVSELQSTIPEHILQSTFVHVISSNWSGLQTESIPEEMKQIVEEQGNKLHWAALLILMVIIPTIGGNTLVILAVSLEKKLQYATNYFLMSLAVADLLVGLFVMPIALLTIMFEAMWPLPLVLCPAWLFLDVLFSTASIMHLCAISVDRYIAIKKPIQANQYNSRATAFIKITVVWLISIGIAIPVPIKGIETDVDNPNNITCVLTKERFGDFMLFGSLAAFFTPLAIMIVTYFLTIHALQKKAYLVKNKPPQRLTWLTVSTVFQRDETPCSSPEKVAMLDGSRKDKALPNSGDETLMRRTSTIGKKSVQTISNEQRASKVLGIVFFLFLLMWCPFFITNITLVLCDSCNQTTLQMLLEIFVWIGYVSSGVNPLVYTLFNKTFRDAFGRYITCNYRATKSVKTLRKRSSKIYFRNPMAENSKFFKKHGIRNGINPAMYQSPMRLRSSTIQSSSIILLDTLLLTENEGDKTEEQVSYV
Chain of P2X purinoceptor (Oryctolagus cuniculus) (G1U3D6 as listed by the source): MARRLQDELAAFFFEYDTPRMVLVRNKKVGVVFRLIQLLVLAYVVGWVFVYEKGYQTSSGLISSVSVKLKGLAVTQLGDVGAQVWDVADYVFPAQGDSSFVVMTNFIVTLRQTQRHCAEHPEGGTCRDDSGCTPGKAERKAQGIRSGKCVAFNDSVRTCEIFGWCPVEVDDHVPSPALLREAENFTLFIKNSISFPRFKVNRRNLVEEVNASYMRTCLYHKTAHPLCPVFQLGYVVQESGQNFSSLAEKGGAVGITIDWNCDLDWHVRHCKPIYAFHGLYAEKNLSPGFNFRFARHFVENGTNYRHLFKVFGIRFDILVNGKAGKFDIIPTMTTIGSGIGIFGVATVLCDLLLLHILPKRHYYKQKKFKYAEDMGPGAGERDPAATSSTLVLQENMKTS
Chain of Cysteinyl leukotriene receptor 1 (Homo sapiens) (Q9Y271 whole entry): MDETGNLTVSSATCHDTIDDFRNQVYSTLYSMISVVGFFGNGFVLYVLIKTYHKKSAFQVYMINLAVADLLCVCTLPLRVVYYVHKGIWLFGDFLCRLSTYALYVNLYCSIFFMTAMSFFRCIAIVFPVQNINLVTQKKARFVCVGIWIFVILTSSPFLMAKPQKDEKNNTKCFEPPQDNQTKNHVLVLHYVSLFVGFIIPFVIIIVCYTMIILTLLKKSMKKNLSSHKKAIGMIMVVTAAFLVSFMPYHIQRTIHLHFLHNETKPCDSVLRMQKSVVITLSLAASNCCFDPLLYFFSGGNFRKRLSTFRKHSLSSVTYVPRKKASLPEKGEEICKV
Chain of Sodium-dependent serotonin transporter (Homo sapiens) (P31645 whole entry, looked up): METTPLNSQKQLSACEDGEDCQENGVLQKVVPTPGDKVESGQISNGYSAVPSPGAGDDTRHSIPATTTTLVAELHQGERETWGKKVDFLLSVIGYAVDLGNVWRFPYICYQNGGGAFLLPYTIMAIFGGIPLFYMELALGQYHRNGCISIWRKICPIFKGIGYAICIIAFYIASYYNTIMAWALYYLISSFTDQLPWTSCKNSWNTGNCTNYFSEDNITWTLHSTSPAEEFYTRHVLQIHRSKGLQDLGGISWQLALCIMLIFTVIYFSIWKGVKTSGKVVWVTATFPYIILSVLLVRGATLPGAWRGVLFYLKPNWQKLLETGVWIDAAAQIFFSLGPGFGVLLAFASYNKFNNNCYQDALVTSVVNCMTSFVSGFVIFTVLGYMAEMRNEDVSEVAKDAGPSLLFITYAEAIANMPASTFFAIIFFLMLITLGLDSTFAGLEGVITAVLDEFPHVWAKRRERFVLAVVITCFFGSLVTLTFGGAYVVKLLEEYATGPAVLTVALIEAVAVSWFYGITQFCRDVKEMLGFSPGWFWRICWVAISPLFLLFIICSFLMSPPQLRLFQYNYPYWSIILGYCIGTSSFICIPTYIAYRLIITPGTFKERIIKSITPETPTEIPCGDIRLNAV
Chain of 3',5'-cyclic-AMP phosphodiesterase 4A (Rattus norvegicus) (P54748 whole entry): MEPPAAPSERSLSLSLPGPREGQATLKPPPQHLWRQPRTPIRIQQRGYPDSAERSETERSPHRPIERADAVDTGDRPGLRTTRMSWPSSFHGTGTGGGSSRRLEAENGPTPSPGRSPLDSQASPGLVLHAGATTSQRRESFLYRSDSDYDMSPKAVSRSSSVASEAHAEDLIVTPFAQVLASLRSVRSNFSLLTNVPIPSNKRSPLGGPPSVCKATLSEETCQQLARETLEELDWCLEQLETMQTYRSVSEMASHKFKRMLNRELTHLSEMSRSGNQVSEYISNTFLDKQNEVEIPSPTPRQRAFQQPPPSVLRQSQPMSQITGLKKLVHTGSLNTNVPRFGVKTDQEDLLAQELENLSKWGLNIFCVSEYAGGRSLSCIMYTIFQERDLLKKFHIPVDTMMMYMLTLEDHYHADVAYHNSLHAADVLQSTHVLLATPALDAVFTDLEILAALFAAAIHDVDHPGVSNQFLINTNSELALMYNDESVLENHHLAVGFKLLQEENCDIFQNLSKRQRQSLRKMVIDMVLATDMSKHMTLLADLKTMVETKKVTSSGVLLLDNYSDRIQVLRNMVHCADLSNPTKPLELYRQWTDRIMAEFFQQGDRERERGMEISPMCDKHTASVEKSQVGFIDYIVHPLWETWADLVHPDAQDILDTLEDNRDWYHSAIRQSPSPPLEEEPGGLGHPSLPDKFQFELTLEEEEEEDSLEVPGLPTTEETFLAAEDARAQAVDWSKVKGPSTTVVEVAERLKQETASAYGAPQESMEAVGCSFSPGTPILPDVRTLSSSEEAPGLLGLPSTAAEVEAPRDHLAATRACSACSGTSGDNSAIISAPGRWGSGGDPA
Chain of D(2) dopamine receptor (Homo sapiens) (P14416 whole entry): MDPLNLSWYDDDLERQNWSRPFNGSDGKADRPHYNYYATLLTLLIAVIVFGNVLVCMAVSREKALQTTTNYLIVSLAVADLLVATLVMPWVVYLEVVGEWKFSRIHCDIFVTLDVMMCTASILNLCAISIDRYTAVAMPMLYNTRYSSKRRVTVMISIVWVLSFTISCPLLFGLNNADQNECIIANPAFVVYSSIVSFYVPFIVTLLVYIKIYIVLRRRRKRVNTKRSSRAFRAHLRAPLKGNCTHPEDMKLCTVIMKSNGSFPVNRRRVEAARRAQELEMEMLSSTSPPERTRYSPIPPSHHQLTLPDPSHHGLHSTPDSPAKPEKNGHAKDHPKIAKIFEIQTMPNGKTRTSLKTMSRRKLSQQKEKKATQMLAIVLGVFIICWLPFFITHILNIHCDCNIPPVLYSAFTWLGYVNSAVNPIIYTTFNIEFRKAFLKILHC
Chain of Kappa-type opioid receptor (Homo sapiens) (P41145 whole entry): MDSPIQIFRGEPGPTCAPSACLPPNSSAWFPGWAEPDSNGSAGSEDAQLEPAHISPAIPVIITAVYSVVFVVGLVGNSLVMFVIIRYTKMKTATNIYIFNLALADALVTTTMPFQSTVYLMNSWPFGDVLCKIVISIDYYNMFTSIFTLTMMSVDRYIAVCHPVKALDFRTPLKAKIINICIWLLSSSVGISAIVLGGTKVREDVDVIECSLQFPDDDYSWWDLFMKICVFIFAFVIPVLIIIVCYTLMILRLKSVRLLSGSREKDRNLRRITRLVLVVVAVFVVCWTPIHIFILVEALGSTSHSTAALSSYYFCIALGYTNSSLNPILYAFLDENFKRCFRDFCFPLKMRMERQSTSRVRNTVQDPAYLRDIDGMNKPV

inhibition [3]: 12.9%
inhibition [6]: 2.56%
Structure (SMILES): COCCCS(=O)(=O)c1cc(C)c(-c2ccc(F)c3c2CC[C@H]3Oc2ccc3c(c2)OC[C@H]3CC(=O)O)c(C)c1
residual activity [1]: 106%
residual activity [2]: 95%
residual activity [4]: 94%
residual activity [5]: 83%
residual activity [7]: 100%

inhibition [16]: 3.41%
Structure (SMILES): Cc1cc(OCCC(C)(C)O)cc(C)c1-c1ccc(F)c2c1CC[C@H]2Oc1ccc2c(c1)OC[C@H]2CC(=O)O
residual activity ([8]; Compound concentration 0.1 uM): 93%
residual activity ([8]; Compound concentration 0.3 uM): 90%
residual activity ([8]; Compound concentration 1.0 uM): 83%
residual activity ([8]; Compound concentration 3.0 uM): 64%
residual activity ([8]; Compound concentration 10.0 uM): 5.5%
residual activity [9]: 106%
residual activity [10]: 100%
residual activity [11]: 122%
residual activity [12]: 31%
residual activity [13]: 63%
residual activity [14]: 68%
residual activity [15]: 81%
residual activity [17]: 83%
residual activity [18]: 97%
residual activity [19]: 106%
residual activity ([20]; Compound concentration 0.3 uM): 102%
residual activity ([20]; Compound concentration 1.0 uM): 108%
residual activity ([20]; Compound concentration 3.0 uM): 92%
residual activity ([20]; Compound concentration 10.0 uM): 55%
residual activity ([20]; Compound concentration 30.0 uM): 11%
residual activity [21]: 105%
residual activity [22]: 88%

From ChEMBL document CHEMBL5058643, “Data for DCP probe BI-2081” (2022)
